Experimental data published in patent publication US10155021B2, “Antimicrobial 4-oxoquinolizines” (Emergent Product Development Gaithersburg Inc., priority 2011, dated 2018).
Values after ≈ are worked out from the molar mass of the structure shown. Like-named read-outs stand apart in the source and are kept apart here.

Experiments:
A. baumannii A489 [1] = experiment: Preliminary MBC without and with sub-inhibitory polymyxin B (Example 4); type: cell-based, Acinetobacter baumannii; details: Acinetobacter baumannii, A489, A. baumannii A489, without polymyxin B, 1st experiment, read-out: MBC without PB
A. baumannii A473 [2] = experiment: as above; type: cell-based, Acinetobacter baumannii; details: Acinetobacter baumannii, A473, A. baumannii A473, without polymyxin B, read-out: MBC without PB
[3] = tested on: Acinetobacter spp. H064200250; experiment: MIC determination for Acinetobacter strains (Example 3); type: cell-based, Acinetobacter sp.; details: LEV R, CIP R, MRP R, IMP I
E. coli CTX-M-15 = experiment: MIC, panel of quinolone-resistant strains (CLSI); type: cell-based; details: Escherichia coli, CTXM15; CIP R, ESBL
A. baumannii A401 [4] = experiment: Preliminary MBC without and with sub-inhibitory polymyxin B (Example 4); type: cell-based, Acinetobacter baumannii; details: Acinetobacter baumannii, A401, A baumannii A 401, without polymyxin B, preliminary MBC, read-out: MBC without PB
Klebsiella ssp KPC-3 = experiment: MIC, panel of quinolone-resistant strains (CLSI); type: cell-based, Klebsiella spp; details: KPC3, CIP R, ESBL
[5] = tested on: Acinetobacter sp. (H064200250); experiment: Preliminary MBC without and with sub-inhibitory polymyxin B (Example 4); type: cell-based; details: Acinetobacter, without polymyxin B, preliminary MBC, read-out: MBC without PB
How it was run: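 Read-out: the minimum concentration at which colonies were reduced by ca. 90% relative to positive control, usually seen as isolated colonies or a clear plate. Plates had been kept 18-20 hours at 37° C beforehand.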

A. baumannii A390 = experiment: as above; type: cell-based, Acinetobacter baumannii; details: Acinetobacter baumannii, A390, A. baumannii A390; without polymyxin B; preliminary MBC; 1st experiment; read-out: MBC without PB
A. baumannii A473 [6] = experiment: MIC without and with sub-inhibitory polymyxin B (Example 4); type: cell-based, Acinetobacter baumannii; details: Acinetobacter baumannii, A473, A. baumannii A473, without polymyxin B, read-out: MIC without PB
[7] = tested on: resistant strains of A. baumannii and one strain of Acinetobacter sp.; experiment: MIC without and with sub-inhibitory polymyxin B, whole panel / MIC ranges (Example 4; also strains not listed separately); type: cell-based; details: for MIC: Acinetobacter baumannii
A. baumannii A472 [8] = experiment: MIC without and with sub-inhibitory polymyxin B (Example 4); type: cell-based, Acinetobacter baumannii; details: for MIC: Acinetobacter baumannii, A472, A. baumannii A472, without polymyxin B, read-out: MIC without PB
A. baumannii A401 [9] = experiment: as above; type: cell-based, Acinetobacter baumannii; details: Acinetobacter baumannii, A401, A baumannii A 401, without polymyxin B, read-out: MIC without PB
P. aeruginosa 1388-3-02 = experiment: MIC, panel of quinolone-resistant strains (CLSI); type: cell-based; details: Pseudomonas aeruginosa, 1388302; CIP R, POL R
P. aeruginosa 143-3-03 = experiment: MIC, panel of quinolone-resistant strains (CLSI); type: cell-based; details: Pseudomonas aeruginosa, 143303; CIP I, POL R
[10] = tested on: Acinetobacter sp. (H064200250); experiment: MIC without and with sub-inhibitory polymyxin B (Example 4); type: cell-based; details: Acinetobacter, without polymyxin B
A. baumannii ATCC 19606 = experiment: as above; type: cell-based, Acinetobacter baumannii; details: Acinetobacter baumannii
A. baumannii A 401 = experiment: MIC determination for Acinetobacter strains (Example 3); type: cell-based; details: A401, LEV R, CIP R, AMK R, TET R
Pseudomonas ssp PER-1 = experiment: MIC, panel of quinolone-resistant strains (CLSI); type: cell-based, Pseudomonas spp; details: PER1, CIP R, ESBL
A. baumannii A489 [11] = experiment: MIC without and with sub-inhibitory polymyxin B (Example 4); type: cell-based, Acinetobacter baumannii; details: Acinetobacter baumannii, A489, A. baumannii A489, without polymyxin B, read-out: MIC without PB
A. baumannii J2 = experiment: as above; type: cell-based, Acinetobacter baumannii; details: Acinetobacter baumannii, J2, A. baumannii J2, without polymyxin B, read-out: MIC without PB
A. baumannii A472 [12] = experiment: Preliminary MBC without and with sub-inhibitory polymyxin B (Example 4); type: cell-based, Acinetobacter baumannii; details: Acinetobacter baumannii, A472, A. baumannii A472, without polymyxin B, read-out: MBC without PB
E. coli 2906 = experiment: MIC, panel of quinolone-resistant strains (CLSI); type: cell-based; details: Escherichia coli, CIP R
A. baumannii A329 [13] = experiment: Preliminary MBC without and with sub-inhibitory polymyxin B (Example 4); type: cell-based, Acinetobacter baumannii; details: Acinetobacter baumannii, A329, A. baumannii A329, without polymyxin B, read-out: MBC without PB
A. baumannii A329 [14] = experiment: MIC determination for Acinetobacter strains (Example 3); type: cell-based; details: LEV R, CIP R, MRP R, IMP R, AMK R, TET R
[15] = Acinetobacter spp. H064200250 (OXA51), 2nd experiment
[16] = Acinetobacter spp. H064200250, 1st experiment
[17] = A. baumannii A14, without polymyxin B, 1st experiment, read-out: MIC without PB
[18] = read-out: MIC range without PB 01-10-2008 n = 8, without polymyxin B, 1st experiment, 8 strains
[19] = without polymyxin B, 2nd experiment, 11 strains, read-out: MIC range without PB 14-10-2008 n = 11
[20] = Acinetobacter spp. H064200250 (OXA51), 2nd experiment, visual reading, read-out: MIC without PB
[21] = Acinetobacter spp. H064200250, 1st experiment, read-out: MIC without PB
[22] = ATCC19606, A. baumannii ATCC 19606, without polymyxin B, 2nd experiment, visual reading, read-out: MIC without PB

| Structure (SMILES) | MBC (A. baumannii A489 [1]) | MIC [3] | MIC (E. coli CTX-M-15) | MIC (Klebsiella ssp KPC-3) | MBC [5, 15] | MBC [5, 16] | MIC [7, 17] | MIC [7, 18] | MIC [7, 19] | MIC (P. aeruginosa 1388-3-02) | MIC (P. aeruginosa 143-3-03) | MIC [10, 20] | MIC [10, 21] | MIC (A. baumannii ATCC 19606; [22]) | MIC (Pseudomonas ssp PER-1) | MIC (A. baumannii A489 [11]; 2nd experiment, visual reading) | MIC (A. baumannii J2; 2nd experiment, visual reading) | MIC (E. coli 2906) | also measured |
| --- | --- | --- | --- | --- | --- | --- | --- | --- | --- | --- | --- | --- | --- | --- | --- | --- | --- | --- | --- |
| Cc1c(-c2ccc(N)cc2)c(F)cn2c(=O)c(C(=O)O)cc(C3CC3)c12 [Compound 7, 8-(4-amino-phenyl)-1-cyclopropyl-7-fluoro-9-methyl-4-oxo-quinolizine-3-carboxylic acid] | 4 µg/mL (≈ 11.4 µM) | 8 µg/mL (≈ 22.7 µM) | 32 µg/mL (≈ 90.8 µM) | 16 µg/mL (≈ 45.4 µM) | 8 µg/mL (≈ 22.7 µM) | 4 µg/mL (≈ 11.4 µM) | 32 µg/mL (≈ 90.8 µM) | 2 to 32 µg/mL (≈ 5.68 to 90.8 µM) | 2 to 16 µg/mL (≈ 5.68 to 45.4 µM) | 16 µg/mL (≈ 45.4 µM) | 4 µg/mL (≈ 11.4 µM) | 16 µg/mL (≈ 45.4 µM) | 8 µg/mL (≈ 22.7 µM) | 0.25 µg/mL (≈ 0.709 µM) | 16 µg/mL (≈ 45.4 µM) | 8 µg/mL (≈ 22.7 µM) | 4 µg/mL (≈ 11.4 µM) | 32 µg/mL (≈ 90.8 µM) | MBC (A. baumannii A473 [2]; 1st experiment): 4 µg/mL (≈ 11.4 µM); MBC (A. baumannii A473 [2]; 2nd experiment): 4 µg/mL (≈ 11.4 µM); MBC (A. baumannii A401 [4]; 2nd experiment): 8 µg/mL (≈ 22.7 µM); MBC (A. baumannii A401 [4]; 1st experiment): 4 µg/mL (≈ 11.4 µM); MBC (A. baumannii A390): 4 µg/mL (≈ 11.4 µM); MIC (A. baumannii A473 [6]; 1st experiment): 4 µg/mL (≈ 11.4 µM); MIC (A. baumannii A473 [6]; 2nd experiment, visual reading): 4 µg/mL (≈ 11.4 µM); MIC ratio without/with polymyxin B (A. baumannii A472 [8]; A. baumannii A472, ratio MIC without PB to MIC + PB, PB […], 2nd experiment): ≥ 256 µg/mL; MIC (A. baumannii A472 [8]; 1st experiment): 4 µg/mL (≈ 11.4 µM); MIC (A. baumannii A472 [8]; 2nd experiment, visual reading): 8 µg/mL (≈ 22.7 µM); MIC (A. baumannii A401 [9]; 1st experiment): 4 µg/mL (≈ 11.4 µM); MIC (A. baumannii A401 [9]; 2nd experiment, visual reading): 8 µg/mL (≈ 22.7 µM); MIC ([10]; Acinetobacter spp. H064200250 (OXA51), 2nd experiment, MIC read with alamar blue, read-out: MIC without PB, read with alamar blue): 8 µg/mL (≈ 22.7 µM); MIC (A. baumannii A 401): 4 µg/mL (≈ 11.4 µM); MIC (A. baumannii A489 [11]; 1st experiment): 8 µg/mL (≈ 22.7 µM); MBC (A. baumannii A472 [12]; 1st experiment): 4 µg/mL (≈ 11.4 µM); MBC (A. baumannii A472 [12]; 2nd experiment): 8 µg/mL (≈ 22.7 µM) |
| C[C@H]1COc2c(N3CCN(C)CC3)c(F)cc3c(=O)c(C(=O)O)cn1c23 [Levofloxacin, reference compound] | 32 µg/mL (≈ 88.6 µM) | 16 µg/mL (≈ 44.3 µM) | 16 µg/mL (≈ 44.3 µM) | > 128 µg/mL | 16 µg/mL (≈ 44.3 µM) | 16 µg/mL (≈ 44.3 µM) | 32 µg/mL (≈ 88.6 µM) | 8 to 32 µg/mL (≈ 22.1 to 88.6 µM) | 4 to 32 µg/mL (≈ 11.1 to 88.6 µM) | 32 µg/mL (≈ 88.6 µM) | 8 µg/mL (≈ 22.1 µM) | 16 µg/mL (≈ 44.3 µM) | 16 µg/mL (≈ 44.3 µM) | 1 µg/mL (≈ 2.77 µM) | 32 µg/mL (≈ 88.6 µM) | 32 µg/mL (≈ 88.6 µM) | 32 µg/mL (≈ 88.6 µM) | 32 µg/mL (≈ 88.6 µM) | MBC (A. baumannii A329 [13]; 1st experiment): 32 µg/mL (≈ 88.6 µM); MBC (A. baumannii A329 [13]; 2nd experiment): 32 µg/mL (≈ 88.6 µM); MIC (A. baumannii A329 [14]): 32 µg/mL (≈ 88.6 µM); fold greater activity (fold lower MIC) in presence of polymyxin B compared to without polymyxin B [7]: not significantly affected; MIC ([7]; A. baumannii A14, without polymyxin B, 2nd experiment, visual reading, read-out: MIC without PB): 32 µg/mL (≈ 88.6 µM); MIC ([7]; NCTC13301, A. baumannii NCTC 13301, without polymyxin B, 1st experiment, read-out: MIC without PB): 32 µg/mL (≈ 88.6 µM); MIC ([7]; NCTC13301, A. baumannii NCTC 13301, without polymyxin B, 2nd experiment, visual reading, read-out: MIC without PB): 32 µg/mL (≈ 88.6 µM); MIC (A. baumannii ATCC 19606; ATCC19606, A. baumannii ATCC 19606, without polymyxin B, 1st experiment, read-out: MIC without PB): 1 µg/mL (≈ 2.77 µM); MIC (A. baumannii ATCC 19606; ATCC19606, read-out: MIC +0.06 μg/ml PB, read with alamar blue, A. baumannii ATCC 19606, +0.06 μg/ml polymyxin B, 2nd experiment, MIC read with alamar blue): 0.5 µg/mL; MIC (A. baumannii J2; 1st experiment): 32 µg/mL (≈ 88.6 µM) |
